Assays:
Assay type in all cases: cell-based
[1] = test system: NCI-H82 (human small cell lung cancer cell); experiment: Cell viability (CellTiter-Glo), NCI-H82; details: sensitive group, 3-4 days of culture, n=3, read-out: Tigecycline IC50
Protocol: (§1) The inhibitory effect of tigecycline on various tumor cell lines was detected using cell activity detection reagent.
(§2) Cell viability was detected using the Promega CellTiter-Glo kit, cell viability was determined by directly measuring intracellular ATP content. In the experiment, the IC50 value of tigecycline on various tumor cell lines was determined.
(§3) Each tumor cell was cultured separately in relevant medium (+p/s), and was incubated for 3 h, then the gradient diluted tigecycline was added. After 3-4 days of culture, the relevant IC50 (50% inhibiting concentration) was measured (n=3). The name, source and culture conditions of each tumor cell line were as follows:
Cell line NCI-H82 (ATCC, No. HTB-175) was cultured in 10% fetal bovine serum-containing RPMI1640 medium (+P/S).

[2] = test system: G-401 (human renal carcinoma Wilms cell); experiment: Cell viability (CellTiter-Glo), G-401; details: sensitive group, 3-4 days of culture, n=3, read-out: Tigecycline IC50
Protocol: as §1, §2, §3
Cell line G-401 (ATCC, No. CRL-1441) was cultured in 10% fetal bovine serum-containing McCoy's 5a medium (+P/S).

[3] = test system: MDA-MB-453 (breast cancer cell); experiment: Cell viability (CellTiter-Glo), MDA-MB-453; details: Homo sapiens, sensitive group, 3-4 days of culture, n=3, read-out: Tigecycline IC50
Protocol: as §1, §2, §3
Cell line MDA-MB-453 (ATCC, No. HTB-131) was cultured in 10% fetal bovine serum-containing Leibovitz's L-15 medium (+P/S).

[4] = test system: SW48 (human colon adenocarcinoma cell); experiment: Cell viability (CellTiter-Glo), SW48; details: sensitive group, 3-4 days of culture, n=3, read-out: Tigecycline IC50
Protocol: as §1, §2, §3
Cell line SW48 (ATCC, No. CCL-231) was cultured in 10% fetal bovine serum-containing Leibovitz's L-15 medium (+P/S).

[5] = test system: WSU-DLCL2 (human diffuse large B-cell lymphoma); experiment: Cell viability (CellTiter-Glo), WSU-DLCL2; details: WSUDLCL2, sensitive group, 3-4 days of culture, n=3, read-out: Tigecycline IC50
Protocol: as §1, §2, §3
Cell line WSU-DLCL2 (DSMZ, No. ACC-575) was cultured in 10% fetal bovine serum-containing RPMI1640 medium (+P/S).

[6] = test system: CFPAC-1 (human pancreatic cancer cell); experiment: Cell viability (CellTiter-Glo), CFPAC-1; details: insensitive group, 3-4 days of culture, n=3, read-out: Tigecycline IC50
Protocol: as §1, §2, §3
Cell line CFPAC-1 (ATCC, No. CRL-1918) was cultured in 10% fetal bovine serum-containing IMDM medium (+P/S).

[7] = test system: 786-O (clear cell renal cell adenocarcinoma cell); experiment: Cell viability (CellTiter-Glo), 786-O; details: Homo sapiens, 786-0, insensitive group, 3-4 days of culture, n=3, read-out: Tigecycline IC50
Protocol: as §1, §2, §3
Cell line 786-0 (ATCC, No. CRL-1932) was cultured in 10% fetal bovine serum-containing RPMI1640 medium (+P/S).

[8] = test system: GB-1 (human glioblastoma cell); experiment: Cell viability (CellTiter-Glo), GB-1; details: insensitive group, 3-4 days of culture, n=3, read-out: Tigecycline IC50
Protocol: as §1, §2, §3
Cell line GB-1 (JCRB, No. IFO050489) was cultured in 10% fetal bovine serum-containing DMEM medium (+P/S).

[9] = test system: SF-126 (human glioblastoma multiforme cell); experiment: Cell viability (CellTiter-Glo), SF-126; details: insensitive group, 3-4 days of culture, n=3, read-out: Tigecycline IC50
Protocol: as §1, §2, §3
Cell line SF126 (JCRB. No. IFO50286) was cultured in 10% fetal bovine serum-containing EMEM medium (+P/S).

[10] = test system: NCI-H82 (Con) cell (transfected with empty virus vector); experiment: Cell viability (CellTiter-Glo), control NCI-H82 (Con); details: Homo sapiens, n=3, read-out: IC50 value of tigecycline on control NCI-H82 cell (NCI-H82 (Con))
Excerpt: (§4) The NNMT protein-overexpressing NCI-H82 cell (NCI-H82 (ov-NNMT)) was obtained by inserting the NNMT gene into NCI-H82 cell using a viral vector. The control NCI-H82 cell (NCI-H82 (Con)) was obtained by transfecting NCI-H82 cell with empty virus vector without carrying NNMT gene.
(§5) The expressing level of NNMT protein in control NCI-H82 cell (NCI-H82 (Con)) and NNMT protein-overexpressing NCI-H82 cell (NCI-H82 (ov-NNMT)) was detected using Western Blot assay (as shown in FIG. 7), it could be seen from FIG. 7 that the NNMT protein in NCI-H82 (ov-NNMT) cell was overexpressed compared with the expression level of NNMT protein in NCI-H82 (Con) cell.
(§6) The IC50 value of tigecycline on control NCI-H82 cell (NCI-H82 (Con)) and NNMT protein-overexpressing NCI-H82 cell (NCI-H82 (ov-NNMT)) was determined using Promega CellTiter-Glo kit which detected cell viability by directly measuring intracellular ATP content (n=3), the experiment result was shown in Table 4 below: […]

[11] = test system: NCI-H82 (ov-NNMT) cell (NNMT protein-overexpressing); experiment: Cell viability (CellTiter-Glo), NNMT-overexpressing NCI-H82; details: Homo sapiens, NNMT gene inserted by viral vector, n=3, read-out: IC50 value of tigecycline on NNMT protein-overexpressing NCI-H82 cell (NCI-H82 (ov-NNMT))
Excerpt: as §4, §5, §6

Work on CN(C)c1cc(NC(=O)CNC(C)(C)C)c(O)c2c1C[C@H]1C[C@H]3[C@H](N(C)C)C(O)=C(C(N)=O)C(=O)[C@@]3(O)C(O)=C1C2=O [Tigecycline, tigecycline] yielded an IC50 [1] of 790 nM, an IC50 [2] of 4.04 µM and an IC50 [3] of 5.05 µM. The IC50 [4] was 6.31 µM, the IC50 [5] was 1360 nM and the IC50 [6] was 24.8 µM. For the same molecule, the IC50 [7] was 26.9 µM, the IC50 [8] was 18.5 µM and the IC50 [9] was 26.3 µM. For the same molecule, the IC50 [10] was 750 nM and the IC50 [11] was 2310 nM.

Reference: patent US20250268923A1, “APPLICATION OF TETRACYCLINE COMPOUND IN TREATMENT OF TUMOR” (NANJING SHIJIANG MEDICINE TECHNOLOGY CO., LTD, priority 2021, published 2025)
